The text below walks through data of US9090593B2, “Bicyclic compounds as Pim inhibitors” (AMGEN INC., priority 2010, dated 2015).

Molecules are shown by their SMILES. Read-outs that look alike come from different tables or passages of the source.

Assay [1] addresses T1, full length recombinant Pim-2 protein (Homo sapiens, UniProt Q9P1W9).
T1 construct: by full length recombinant Pim-1, Pim-2, or Pim-3 protein; hexahistidine tag followed by a thrombin cleavage site (N); made in house; host or cells: Sf9 (baculovirus) or E. coli (pET28)
As to the kind of experiment: Pim-2 enzyme assay (HTRF, phosphorylation of biotinylated-BAD (S112) peptide). The settings on record: enzyme assay, Pim-2; read-out: Pim2_IC50. Format: biochemical. The procedure, abridged:
(§1)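 Full-length human Pim-1 or Pim-2 (His6-tagged, Sf9 or E. coli expressed, Ni and Superdex 75 purified) phosphorylates biotinylated BAD (S112) peptide in 60 mM Hepes pH 7.0, 0.05% BSA, 2 mM DTT. Stopped with 3 mM EDTA; HTRF read with Eu anti-phospho-BAD and streptavidin-APC. IC50 from 4-parameter logistic fit of percent of control.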
Background: Time-resolved FRET reads energy transfer from a long-lived donor to a nearby acceptor.

Assay [2] concerns the target T2, full length recombinant Pim-3 protein (Homo sapiens, UniProt Q86V86).
T2 construct: by full length recombinant Pim-1, Pim-2, or Pim-3 protein; purchased Millipore (UK)
As to the kind of experiment: Pim-3 enzyme assay (HTRF, phosphorylation of biotinylated-BAD (S112) peptide). The following applies: read-out: Pim3 IC50. It counts as biochemical. The procedure, abridged: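 Full-length recombinant Pim-3 phosphorylates biotinylated BAD (S112) peptide in 60 mM Hepes pH 7.0, 0.05% BSA, 2 mM DTT; reaction stopped with 3 mM EDTA. Phospho-BAD detected by HTRF (Eu anti-phospho-BAD S112 antibody, streptavidin-APC). IC50 from percent-of-control values fitted to a 4-parameter logistic model.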

Assay [3] deals with T3, Pim-2 stably transfected into the U2OS human osteogenic sarcoma line (Homo sapiens, UniProt Q9P1W9).
T3 construct: expressed in transfected cells; host or cells: U2OS human osteogenic sarcoma line
T3 sequence (Q9P1W9 whole entry): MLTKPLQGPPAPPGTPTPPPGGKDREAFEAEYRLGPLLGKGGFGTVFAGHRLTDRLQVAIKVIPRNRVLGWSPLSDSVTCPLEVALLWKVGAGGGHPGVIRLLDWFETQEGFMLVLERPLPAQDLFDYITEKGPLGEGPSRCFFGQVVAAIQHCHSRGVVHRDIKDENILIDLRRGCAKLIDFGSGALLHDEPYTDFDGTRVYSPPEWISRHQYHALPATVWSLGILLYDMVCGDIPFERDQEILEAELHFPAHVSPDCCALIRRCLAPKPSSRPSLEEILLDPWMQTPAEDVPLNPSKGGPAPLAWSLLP
As to the kind of experiment: Pim cell assay, phospho-BAD normalized against total BAD, U2OS stably transfected with Pim-2. Further: high dose 31.6 µM. Format: cell-based. The following applies: read-out: Pim2_Cell_IC50. The method in brief:
(§2)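 U2OS cells stably expressing Pim-1 or Pim-2 were plated overnight at 37 °C, then dosed over a 10-point curve (final 0.3% DMSO; DMSO alone as high control). Lysates assayed for phospho- and total BAD by Meso Scale immunoassay; % phosphoprotein = (2×phospho)/(phospho+total)×100.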

For assay [4], the target named is T4, full length recombinant Pim-1 protein (Homo sapiens, UniProt P11309).
T4 construct: by full length recombinant Pim-1, Pim-2, or Pim-3 protein; hexahistidine tag followed by a thrombin cleavage site (N); made in house; host or cells: Sf9 (baculovirus) or E. coli (pET28)
T4 sequence (P11309 whole entry): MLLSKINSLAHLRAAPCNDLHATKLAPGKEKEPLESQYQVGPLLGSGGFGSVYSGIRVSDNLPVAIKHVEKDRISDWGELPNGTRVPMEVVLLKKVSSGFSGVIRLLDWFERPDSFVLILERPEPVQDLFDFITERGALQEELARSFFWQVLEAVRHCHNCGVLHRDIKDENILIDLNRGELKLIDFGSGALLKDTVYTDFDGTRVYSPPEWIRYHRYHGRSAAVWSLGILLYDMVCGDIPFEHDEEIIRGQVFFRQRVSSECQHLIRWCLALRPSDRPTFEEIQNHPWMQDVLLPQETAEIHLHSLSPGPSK
Put plainly: Pim-1 enzyme assay (HTRF, phosphorylation of biotinylated-BAD (S112) peptide). The settings on record: enzyme assay, Pim-1; read-out: Pim_1_IC50. Format: biochemical. The method in brief:
as §1

Assay [5] has as its target T5, Pim-1 stably transfected into the U2OS human osteogenic sarcoma line (Homo sapiens, UniProt P11309).
T5 construct: expressed in transfected cells; host or cells: U2OS human osteogenic sarcoma line
As to the kind of experiment: Pim cell assay, phospho-BAD normalized against total BAD, U2OS stably transfected with Pim-1. It counts as cell-based. The following applies: read-out: Pim1_Cell_IC50. The procedure, abridged: as §2

The mark [6] stands for this setting: U2OS cells stably transfected with Pim-2, phospho-BAD, high dose […].
[7] abbreviates: U2OS cells stably transfected with Pim-1, phospho-BAD, high dose […].

T1 sequence (Q9P1W9 whole entry): as the sequence (Q9P1W9 whole entry) above
T5 sequence (P11309 whole entry): as the sequence (P11309 whole entry) above

As for `COc1cc(OC)cc(-c2ccc3[nH]nc(-c4cncc(N5CCC(N)CC5)n4)c3c2)c1` [Example 86, 1-(6-(5-(3,5-dimethoxyphenyl)-1H-indazol-3-yl)-2-pyrazinyl)-4-piperidinamine], the IC50 in assay [1] came out at 60 nM; in assay [2], 2 nM; in assay [3] (setting [6]), 20.3 µM; in assay [4], 6 nM; in assay [5] (setting [7]), 328 nM.

For the compound `NC1CCN(c2cncc(-c3n[nH]c4ccc(-c5cncnc5)cc34)n2)CC1` [Example 87, 1-(6-(5-(5-pyrimidinyl)-1H-indazol-3-yl)-2-pyrazinyl)-4-piperidinamine], the IC50 was 43 nM in assay [1]; 5 nM in assay [2]; > 31.6 µM in assay [3] (setting [6]); 12 nM in assay [4]; 569 nM in assay [5] (setting [7]).

For `NC1CCN(c2cncc(-c3n[nH]c4ccc(-c5ccccn5)cc34)n2)CC1` [Example 88, 1-(6-(5-(2-pyridinyl)-1H-indazol-3-yl)-2-pyrazinyl)-4-piperidinamine], the IC50 in assay [1] was 685 nM; in assay [2], 57 nM; in assay [3] (setting [6]) it was > 31.6 µM; in assay [4], 48 nM; in assay [5] (setting [7]), 1190 nM.

Take `NC1CCN(c2cncc(-c3n[nH]c4ccc(N5CCCCC5)cc34)n2)CC1` [Example 90, 1-(6-(5-(1-piperidinyl)-1H-indazol-3-yl)-2-pyrazinyl)-4-piperidinamine]: the IC50 was 196 nM in assay [1]; 40 nM in assay [2]; > 31.6 µM in assay [3] (setting [6]); 23 nM in assay [4]; 747 nM in assay [5] (setting [7]).

On to `CN1CCN(c2ccc3[nH]nc(-c4cncc(N5CCC(N)CC5)n4)c3c2)C1=O` [Example 92, 1-(3-(6-(4-amino-1-piperidinyl)-2-pyrazinyl)-1H-indazol-5-yl)-3-methyl-2-imidazolidinone], for which the IC50 is 57 nM in assay [1]; 5 nM in assay [2]; > 31.6 µM in assay [3]; 9 nM in assay [4]; 2230 nM in assay [5].

Consider `CC(C)(C)C(=O)Nc1cccc(-c2ccc3[nH]nc(-c4cncc(N5CCC(N)CC5)n4)c3c2)n1` [Example 93, N-(6-(3-(6-(4-amino-1-piperidinyl)-2-pyrazinyl)-1H-indazol-5-yl)-2-pyridinyl)-2,2-dimethylpropanamide], for which the IC50 in assay [1] was > 1000 nM; in assay [2], 82 nM; in assay [3] (setting [6]) it was > 31.6 µM; in assay [4], 13 nM; in assay [5] (setting [7]) it was 487 nM.

As to `NC1CCN(c2cncc(-c3n[nH]c4ccc(-c5ccc6cc[nH]c6n5)cc34)n2)CC1` [Example 95, 1-(6-(5-(1H-pyrrolo[2,3-b]pyridin-6-yl)-1H-indazol-3-yl)-2-pyrazinyl)-4-piperidinamine], the IC50 in assay [1] is 82 nM; in assay [2] it was 3 nM; in assay [3] (setting [6]), > 31.6 µM; in assay [4] it was 5 nM; in assay [5] (setting [7]) it was 384 nM.

Turning to `Nc1ncc(-c2ccc3[nH]nc(-c4cncc(N5CCC(N)CC5)n4)c3c2)cn1` [Example 97, 5-(3-(6-(4-amino-1-piperidinyl)-2-pyrazinyl)-1H-indazol-5-yl)-2-pyrimidinamine], the IC50 is 27 nM in assay [1]; 1 nM in assay [2]; > 31.6 µM in assay [3] (setting [6]); 3 nM in assay [4]; 3030 nM in assay [5] (setting [7]).

In the case of `NC1CCN(c2cncc(-c3n[nH]c4ccc(-c5cn6ccnc6cn5)cc34)n2)CC1` [Example 99, 1-(6-(5-imidazo[1,2-a]pyrazin-6-yl-1H-indazol-3-yl)-2-pyrazinyl)-4-piperidinamine], the IC50 is 57 nM in assay [1]; 5 nM in assay [2]; > 31.6 µM in assay [3] (setting [6]); 3 nM in assay [4]; 4720 nM in assay [5] (setting [7]).

With `Nc1cc(-c2ccc3[nH]nc(-c4cncc(N5CCC(N)CC5)n4)c3c2)ccn1` [Example 100, 4-(3-(6-(4-amino-1-piperidinyl)-2-pyrazinyl)-1H-indazol-5-yl)-2-pyridinamine], the IC50 in assay [1] is 18 nM; in assay [2], 2 nM; in assay [3] (setting [6]), > 31.6 µM; in assay [4] it was 1 nM; in assay [5] (setting [7]) it was 1250 nM.

In the case of `COc1ccc2c(-c3ccc4[nH]nc(-c5cncc(N6CCC(N)CC6)n5)c4c3)ccnc2c1` [Example 101, 1-(6-(5-(7-methoxy-4-quinolinyl)-1H-indazol-3-yl)-2-pyrazinyl)-4-piperidinamine], the IC50 in assay [1] was 55 nM; in assay [2], 10 nM; in assay [3] (setting [6]), > 31.6 µM; in assay [4], 4 nM; in assay [5] (setting [7]) it was 269 nM.

As for `NC1CCN(c2cncc(-c3n[nH]c4ccc(-c5ccncc5)cc34)n2)CC1` [Example 102, 1-(6-(5-(4-pyridinyl)-1H-indazol-3-yl)-2-pyrazinyl)-4-piperidinamine], the IC50 in assay [1] came to 20 nM; in assay [2], 3 nM; in assay [3] (setting [6]) it was 5 µM; in assay [4], 2 nM; in assay [5] (setting [7]), 199 nM.

Consider `COc1cncc(-c2ccc3[nH]nc(-c4cncc(O[C@@H]5CCCNC5)n4)c3c2)c1` [Example 114, 5-(5-methoxy-3-pyridinyl)-3-(6-((3R)-3-piperidinyloxy)-2-pyrazinyl)-1H-indazole], for which the IC50 was determined as 77 nM in assay [1]; 12 nM in assay [2]; 8.5 µM in assay [3] (setting [6]); 6 nM in assay [4]; 172 nM in assay [5] (setting [7]).

Consider `Fc1cncc(-c2ccc3[nH]nc(-c4cncc(O[C@@H]5CCCNC5)n4)c3c2)c1` [Example 115, 5-(5-fluoro-3-pyridinyl)-3-(6-((3R)-3-piperidinyloxy)-2-pyrazinyl)-1H-indazole], for which the IC50 in assay [1] was 155 nM; in assay [2], 20 nM; in assay [3] (setting [6]), > 31.6 µM; in assay [4], 33 nM; in assay [5] (setting [7]), 958 nM.

Take `c1cc2cc(-c3ccc4[nH]nc(-c5cncc(O[C@@H]6CCCNC6)n5)c4c3)cnc2[nH]1` [Example 121, 3-(6-((3R)-3-piperidinyloxy)-2-pyrazinyl)-5-(1H-pyrrolo[2,3-b]pyridin-5-yl)-1H-indazole]: the IC50 in assay [1] stood at 23 nM; in assay [2] it was 5 nM; in assay [3] (setting [6]) it was 3.01 µM; in assay [4], 3 nM; in assay [5] (setting [7]) it was 157 nM.

As to `CC(C)NC(=O)c1ccc(F)c(-c2ccc3[nH]nc(-c4cncc(O[C@@H]5CCCNC5)n4)c3c2)c1` [Example 122, 4-fluoro-N-(1-methylethyl)-3-(3-(6-((3R)-3-piperidinyloxy)-2-pyrazinyl)-1H-indazol-5-yl)benzamide], the IC50 in assay [1] was 14 nM; in assay [2] it was 20 nM; in assay [3] (setting [6]) it was 1.85 µM; in assay [4], 16 nM; in assay [5] (setting [7]), 287 nM.

As for `CC(C)c1ccnc(-c2ccc3[nH]nc(-c4cncc(O[C@@H]5CCCNC5)n4)c3c2)n1` [Example 126, 5-(4-(1-methylethyl)-2-pyrimidinyl)-3-(6-((3R)-3-piperidinyloxy)-2-pyrazinyl)-1H-indazole], the IC50 in assay [1] was 161 nM; in assay [2], 6 nM; in assay [3] (setting [6]) it was > 31.6 µM; in assay [4], 13 nM; in assay [5] (setting [7]), 563 nM.

For the compound `c1cc(C2CC2)nc(-c2ccc3[nH]nc(-c4cncc(O[C@@H]5CCCNC5)n4)c3c2)n1` [Example 127, 5-(4-cyclopropyl-2-pyrimidinyl)-3-(6-((3R)-3-piperidinyloxy)-2-pyrazinyl)-1H-indazole], the IC50 in assay [1] is 67 nM; in assay [2], 6 nM; in assay [3] (setting [6]), > 31.6 µM; in assay [4] it was 13 nM; in assay [5] (setting [7]), 1020 nM.

As to `CN1CCOc2cc(-c3ccc4[nH]nc(-c5cncc(O[C@@H]6CCCNC6)n5)c4c3)cnc21` [Example 130, 4-methyl-7-(3-(6-((3R)-3-piperidinyloxy)-2-pyrazinyl)-1H-indazol-5-yl)-3,4-dihydro-2H-pyrido[3,2-b][1,4]oxazine], the IC50 was found to be 25 nM in assay [1]; 8 nM in assay [2]; 9.24 µM in assay [3] (setting [6]); 7 nM in assay [4]; 208 nM in assay [5] (setting [7]).

On to `COc1cccc(-c2ccc3[nH]nc(-c4cncc(O[C@@H]5CCCNC5)n4)c3c2)c1F` [Example 131, 5-(2-fluoro-3-methoxyphenyl)-3-(6-((3R)-3-piperidinyloxy)-2-pyrazinyl)-1H-indazole], for which the IC50 in assay [1] was 15 nM; in assay [2], 5 nM; in assay [3] (setting [6]) it was 8.91 µM; in assay [4], 2 nM; in assay [5] (setting [7]), 151 nM.
